Laboratory results: patent US20170224654A1, “PHARMACEUTICAL COMPOSITIONS AND METHODS FOR COUNTERING CHEMOTHERAPY INDUCED CARDIOTOXICITY” (Stem Cell Theranostics, Inc., priority 2016, published 2017)
Values belong to the compound of their own block, whether it stands above or below them.

How the values were obtained:
[1] = test system: MDA-MB-231 breast cancer cells; assay: Cell viability with doxorubicin (CellTiter-Glo); type: cell-based; conditions: co-treated with increasing concentrations of doxorubicin, 72 hours
[2] = test system: induced pluripotent stem cell-derived cardiomyocytes; assay: Long term toxicity on electrophysiology (active electrodes, MEA); type: cell-based; conditions: for number of active electrodes relative to the mock-treated sample (in words): various concentrations, at least 5 days
Method: Samples were either mock-treated with 0.1% DMSO, or treated with various concentrations of the indicated drug. Following treatment, the percentage of active electrodes in each sample was measured for at least 5 days. Percentage of active electrodes was quantified and graphed in a time course.

A549 cells (lung cancer) = assay: Cell viability with doxorubicin (CellTiter-Glo); type: cell-based; conditions: co-treated with increasing concentrations of doxorubicin, 72 hours
Method: A549 cells (lung cancer) were cultured for 1 day before performing experiments. […] XLFit was used for curve fitting.

[3] = test system: topoisomerase IIβ protein in human iPSC-derived cardiomyocytes; assay: TOPOIIβ protein level (immunostaining), 24 hours; type: cell-based; conditions: 100 μM
Method: To further distinguish molecular mechanisms of MYR from those of DEX and also to determine whether the inhibitory effects of MYR on TOPOII observed in the decatenation assays above is due to degradation of TOPOII proteins, human iPSC-derived cardiomyocytes were treated with DMSO, DEX (100 μM), or MYR (100 μM) for 24 hours, and immunostained with antibody against topoisomerase IIβ (BD Biosciences).
Cells were imaged using INCell Analyzer2200 (GE) and […] protein levels were quantified. Student T-Test (unpaired, two-tailed) was used to determine the significance of the difference.

TOPOIIα = biological target: T1, TOPOIIα (Homo sapiens, UniProt P11388); assay: kDNA decatenation assay; type: biochemical
T1 construct: purchased Inspiralis
T1 sequence (P11388 whole entry): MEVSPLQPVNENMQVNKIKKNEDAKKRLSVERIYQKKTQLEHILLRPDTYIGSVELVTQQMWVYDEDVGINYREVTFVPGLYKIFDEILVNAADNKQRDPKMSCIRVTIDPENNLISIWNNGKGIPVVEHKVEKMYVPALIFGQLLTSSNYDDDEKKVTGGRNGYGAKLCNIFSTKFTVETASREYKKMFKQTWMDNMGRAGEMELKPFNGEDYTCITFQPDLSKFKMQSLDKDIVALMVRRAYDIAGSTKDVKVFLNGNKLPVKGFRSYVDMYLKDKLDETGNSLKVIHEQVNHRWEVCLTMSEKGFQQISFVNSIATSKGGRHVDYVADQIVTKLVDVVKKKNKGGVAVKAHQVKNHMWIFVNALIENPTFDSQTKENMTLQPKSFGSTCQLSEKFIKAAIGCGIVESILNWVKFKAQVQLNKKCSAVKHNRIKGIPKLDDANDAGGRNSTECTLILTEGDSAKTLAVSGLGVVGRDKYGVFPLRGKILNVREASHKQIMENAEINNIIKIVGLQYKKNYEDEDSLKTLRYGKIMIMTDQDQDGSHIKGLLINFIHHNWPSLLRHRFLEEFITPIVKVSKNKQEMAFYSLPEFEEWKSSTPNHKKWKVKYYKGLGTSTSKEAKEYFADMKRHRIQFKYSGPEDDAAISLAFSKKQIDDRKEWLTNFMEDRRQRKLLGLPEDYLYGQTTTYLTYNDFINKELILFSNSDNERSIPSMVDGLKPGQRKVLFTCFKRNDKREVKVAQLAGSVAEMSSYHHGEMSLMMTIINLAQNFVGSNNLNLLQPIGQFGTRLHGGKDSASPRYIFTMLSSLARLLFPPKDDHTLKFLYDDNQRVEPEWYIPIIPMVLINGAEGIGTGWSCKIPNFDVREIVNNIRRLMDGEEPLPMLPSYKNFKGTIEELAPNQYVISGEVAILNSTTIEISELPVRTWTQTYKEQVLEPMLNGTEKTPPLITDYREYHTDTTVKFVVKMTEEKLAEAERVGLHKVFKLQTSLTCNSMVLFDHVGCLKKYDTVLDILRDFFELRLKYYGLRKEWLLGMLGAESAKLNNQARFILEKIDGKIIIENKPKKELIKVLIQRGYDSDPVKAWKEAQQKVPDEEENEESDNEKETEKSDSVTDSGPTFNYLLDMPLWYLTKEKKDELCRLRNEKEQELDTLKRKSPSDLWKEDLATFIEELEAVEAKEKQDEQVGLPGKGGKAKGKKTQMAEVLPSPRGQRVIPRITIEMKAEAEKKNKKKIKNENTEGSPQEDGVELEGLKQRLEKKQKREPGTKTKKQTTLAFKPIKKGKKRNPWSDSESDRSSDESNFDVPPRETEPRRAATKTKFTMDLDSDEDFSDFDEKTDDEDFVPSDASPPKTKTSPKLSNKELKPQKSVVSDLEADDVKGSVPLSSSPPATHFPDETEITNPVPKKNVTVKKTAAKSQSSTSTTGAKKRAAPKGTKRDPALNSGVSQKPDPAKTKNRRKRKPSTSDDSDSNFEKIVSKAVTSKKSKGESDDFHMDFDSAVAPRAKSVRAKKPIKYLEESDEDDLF

[4] = test system: human induced pluripotent stem cell-derived cardiomyocytes; assay: Long-term mitochondrial health (TMRM), 7 days; type: cell-based; conditions: 1 μM doxorubicin alone or with dexrazoxane or vitexin
Method: Following treatment, the samples were incubated with a tetramethylrhodamine methyl ester (TMRM) dye to indicate mitochondrial health. […] Representative images are presented for each sample, wherein loss of TMRM signal represents mitochondrial toxicity.

[5] = test system: induced pluripotent stem cell-derived cardiomyocytes; assay: Acute toxicity on electrophysiology (MEA beat period, field potential duration); type: cell-based; conditions: lower drug concentration, at least 20 minutes
Method: Samples were either mock-treated with 0.1% DMSO, or treated with increasing concentrations of the indicated drug for at least 20 minutes. Cardiomyocytes were treated with the hERG potassium channel blocker E4031 as a control. Following treatment, the beat period and field potential duration (FPD) were measured in each sample using the MEA.

TOPOIIβ = biological target: T2, TOPOIIβ (Homo sapiens, UniProt Q02880); assay: kDNA decatenation assay; type: biochemical; conditions: for IC50: 37° C., 30 min, n=3, read-out: IC50 of TOPOIIβ enzyme activity
T2 construct: purchased Inspiralis
T2 sequence (Q02880 whole entry): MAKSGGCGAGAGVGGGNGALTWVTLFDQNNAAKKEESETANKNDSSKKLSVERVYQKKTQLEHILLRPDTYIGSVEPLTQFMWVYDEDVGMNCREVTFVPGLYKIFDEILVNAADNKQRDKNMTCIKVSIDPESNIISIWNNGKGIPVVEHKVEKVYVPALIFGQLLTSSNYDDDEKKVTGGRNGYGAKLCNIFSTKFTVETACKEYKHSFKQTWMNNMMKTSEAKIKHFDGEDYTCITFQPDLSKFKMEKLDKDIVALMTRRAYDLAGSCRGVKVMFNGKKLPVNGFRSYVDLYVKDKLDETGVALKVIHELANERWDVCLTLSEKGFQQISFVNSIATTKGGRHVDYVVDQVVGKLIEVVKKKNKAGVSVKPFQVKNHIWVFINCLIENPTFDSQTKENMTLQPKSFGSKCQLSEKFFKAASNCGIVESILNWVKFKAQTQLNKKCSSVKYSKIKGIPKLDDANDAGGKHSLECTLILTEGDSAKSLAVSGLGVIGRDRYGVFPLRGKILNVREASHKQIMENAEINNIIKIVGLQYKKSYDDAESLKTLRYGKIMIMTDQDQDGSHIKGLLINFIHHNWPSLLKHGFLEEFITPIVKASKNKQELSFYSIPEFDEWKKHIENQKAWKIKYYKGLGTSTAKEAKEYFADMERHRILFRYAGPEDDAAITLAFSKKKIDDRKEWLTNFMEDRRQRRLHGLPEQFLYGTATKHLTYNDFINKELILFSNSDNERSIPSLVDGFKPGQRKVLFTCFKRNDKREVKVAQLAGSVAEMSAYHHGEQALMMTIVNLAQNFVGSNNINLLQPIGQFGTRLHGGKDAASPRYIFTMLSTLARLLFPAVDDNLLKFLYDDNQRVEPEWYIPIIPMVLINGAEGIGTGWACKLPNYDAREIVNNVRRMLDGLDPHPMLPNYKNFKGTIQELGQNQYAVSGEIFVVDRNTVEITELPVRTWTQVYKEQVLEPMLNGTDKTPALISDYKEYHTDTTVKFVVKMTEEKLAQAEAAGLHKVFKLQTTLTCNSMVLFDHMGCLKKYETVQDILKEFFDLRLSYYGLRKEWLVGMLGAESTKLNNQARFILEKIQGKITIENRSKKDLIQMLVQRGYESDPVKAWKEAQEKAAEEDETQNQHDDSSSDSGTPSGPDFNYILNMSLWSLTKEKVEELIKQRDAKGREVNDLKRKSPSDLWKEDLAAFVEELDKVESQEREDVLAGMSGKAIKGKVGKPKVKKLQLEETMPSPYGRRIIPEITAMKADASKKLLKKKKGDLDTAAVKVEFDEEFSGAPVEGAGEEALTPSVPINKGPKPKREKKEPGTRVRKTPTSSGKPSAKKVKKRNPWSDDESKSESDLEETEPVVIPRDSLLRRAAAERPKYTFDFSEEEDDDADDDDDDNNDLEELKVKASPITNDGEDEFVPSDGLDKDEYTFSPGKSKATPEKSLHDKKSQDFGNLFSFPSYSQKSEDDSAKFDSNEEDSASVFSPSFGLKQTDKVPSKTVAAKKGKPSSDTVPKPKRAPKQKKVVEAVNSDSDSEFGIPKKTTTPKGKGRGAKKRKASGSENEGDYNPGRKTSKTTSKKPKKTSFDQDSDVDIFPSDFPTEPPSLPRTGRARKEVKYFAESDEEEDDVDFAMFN

[6] = test system: cardiomyocytes derived from human induced pluripotent stem cells; assay: Doxorubicin-induced mitochondrial toxicity (TMRM-negative cells), 48 hours; type: cell-based; conditions: 1 μM doxorubicin, KAE 17 μM, AMB 0.76 μM, MES 10 μM, NAC 50 μM, Dex 160 μM, VIT 115 μM
Method: Following treatment, the samples were incubated with a tetramethylrhodamine methyl ester (TMRM) dye to indicate mitochondrial health, and a second dye to identify cell nuclei.

[7] = test system: TOPOII enzymes (TOPOIIα and TOPOIIβ); assay: kDNA decatenation assay, TOPOIIα and TOPOIIβ jointly; type: biochemical; conditions: discussion of Table 1
Method: 200 ng of kinetoplast DNA (kDNA) was incubated with one enzymatic unit of TOPOIIα or TOPOIIβ enzyme (Inspiralis) and with various concentrations of MYR or DEX at 37° C. for 30 min. The reaction was then separated on 1% agarose gel for visualization of decatenated DNA (bottom band). The efficiency of catalytic inhibition was quantified by measuring the relative intensity of the band.

[8] = test system: Human iPSC-derived cardiomyocytes; assay: Cytotoxicity of MYR analogs to cardiomyocytes; conditions: for cytotoxicity / toxic effects to cardiomyocytes (in words): at or below 100 μM as stated
[9] = test system: Doxorubicin treated human iPSC-derived cardiomyocytes; assay: iPSC-CM protection of MYR analogs against doxorubicin; type: cell-based; conditions: discussion of Table 1
[10] = test system: Human iPSC-derived cardiomyocytes; assay: Mitochondrial toxicity imaging (TMRM) after doxorubicin, 2 days; type: cell-based; conditions: 1.25 μM doxorubicin + 79 μM myricetin vs 1.25 μM doxorubicin alone
Method: Following treatment, the samples were incubated with a tetramethylrhodamine methyl ester (TMRM) dye to indicate mitochondrial health, and Hoechst 33342 to identify cell nuclei. Cells were imaged using the INCell Analyzer2200.

[11] = test system: Human iPSC-derived cardiomyocytes; assay: DOX-induced contractility dysfunction (Pulse videos), 48 hours; type: cell-based
[12] = test system: human induced pluripotent stem cell-derived cardiomyocytes (iPSC-CM)
cardiomyocytes = assay: Bortezomib-induced cell death; type: cell-based, human; conditions: 100 μM myricetin
TOPOIIα mRNA expression = assay: mRNA expression level in cardiomyocytes; type: cell-based
[13] = test system: sorafenib treated cardiomyocytes; assay: Sorafenib-induced contractile dysfunction; type: cell-based, human; conditions: 5 μM sorafenib
TOPOIIβ mRNA expression = assay: mRNA expression level in cardiomyocytes; type: cell-based
[14] = test system: Human iPSC-derived cardiomyocytes; assay: DOX-induced DNA double strand break (γH2AX immunostaining); type: cell-based; conditions: DOX 0.5 μM plus 100 μM agent, 48 hours
patient = assay: Patient treatment examples (echocardiogram / electrocardiogram); type: in vivo, human; conditions: for QT prolongation (in words): doxorubicin (5 mg/mL) given with the protective agent
Method: A patient, with a history of heart disease, is diagnosed with breast cancer. Due to an increased risk for heart failure, the patient is unable to receive the standard treatment regimen of doxorubicin, which is known to induce cardiotoxicity. Instead, the caregiver administers a co-formulation of doxorubicin (10 mg) and vitexin (100 mg). An echocardiogram is performed and blood flow rate is measured to determine if the therapy has a cardiotoxic effect in the patient.
A patient is diagnosed with liver cancer. […] The patient presents with a 20 ms QT prolongation. […] The patient is able to continue receiving treatment over several weeks after which a tissue biopsy is performed to confirm the liver cancer has been eradicated.
(§1) A patient is diagnosed with stage II lung cancer, and presents with bradycardia. Due to an increased risk for heart failure, the patient is unable to receive the standard treatment regimen of doxorubicin, which is known to affect cardiac contraction and induce bradycardia. Instead, the caregiver administers a co-formulation of doxorubicin (10 mg) and myricetin (100 mg). An electrocardiogram is used to monitor the patient's heart rate. […] The lung cancer is down-staged to stage 1, and the cancer is successfully removed with surgery.
as §1, with “myricetin (100 mg) 24 hours before administration” for “a co-formulation”, “(10” for “(10 mg) and myricetin (100”

in vitro = conditions: human
C57BL/6 mice = assay: Acute anthracycline-induced cardiotoxicity model, echocardiography; type: in vivo; conditions: Doxorubicin 20 mg/kg single intraperitoneal injection, day 5
Description: An acute anthracycline-induced cardiotoxicity model was established in 9-10 week old C57BL/6 mice obtained from The Jackson Laboratory. […] General health of the animals was monitored on a daily basis throughout the course of the study. […] Left ventricular (LV) M-mode images were obtained in the two-dimensional short axis view close to the papillary muscles. Tracings of endocardial tissue during systole and diastole were made off line.

[15] = test system: human induced pluripotent stem cell-derived cardiomyocytes; assay: Electrophysiological activity with doxorubicin (active electrodes, MEA); type: cell-based; conditions: 1 μM doxorubicin, in the absence of vitexin
Method: Samples were either mock-treated with 0.1% DMSO, treated with 1 μM doxorubicin, or co-treated with 1 μM doxorubicin and various concentrations of vitexin (e.g., 11.6 μM, 37 μM, or 116 μM). Following treatment, the percentage of active electrodes in each sample was measured for 72 hours. Percentage of active electrodes was quantified and graphed in a time course (FIG. 28A). The average number of active electrodes per well was quantified and graphed at 30 hours after the treatment (FIG. 28B, n=6, standard deviation is shown as error bars).

[16] = agent alone, DOX at 24 and 48 hours

topoisomerase IIβ protein levels [3]: marked disappearance of TOPOIIβ | IC50 (TOPOIIα; 37° C., 30 min, n=3, read-out: IC50 of TOPOIIα enzyme activity): 52.7 µM | IC50 (TOPOIIβ): 34.4 µM
Compound: C[C@@H](CN1CC(=O)NC(=O)C1)N1CC(=O)NC(=O)C1 [dexrazoxane]
percentage of cell death vs doxorubicin in the absence of a protective agent [1]: no significant difference | reduction in the number of active electrodes ([2]; 500 dexrazoxane, about 2 days post-treatment): ~50% | percentage of cell death vs doxorubicin in the absence of a protective agent (A549 cells (lung cancer)): no significant difference | mitochondrial toxicity / protection (TMRM-positive cells) [4]: increase in mitochondrial toxicity | beat period or field potential duration, as compared to control samples [5]: no appreciable difference

Compound: Nc1c(Br)cc(Br)cc1CN[C@H]1CC[C@H](O)CC1 [ambroxol]
percentage of cell death vs doxorubicin in the absence of a protective agent [1]: no significant difference | number of active electrodes relative to the mock-treated sample (in words) [2]: no observable decrease | percentage of cell death vs doxorubicin in the absence of a protective agent (A549 cells (lung cancer)): no significant difference | beat period or field potential duration, as compared to control samples [5]: no appreciable difference

TOPOIIα Inhibition (TOPOIIα): − | TOPOII (TOPOIIα and TOPOIIβ) inhibition (in words) [7]: did not exhibit any inhibitory effect | TOPOIIβ Inhibition (TOPOIIβ): −
Compound: O=c1c(O)c(-c2ccc(O)cc2)oc2cc(O)cc(O)c12 [Compound 7, 3,5,7,4′-tetrahydroxyflavone]
decrease in mitochondrial toxicity vs doxorubicin alone [6]: at least 60% | percentage of cell death vs doxorubicin in the absence of a protective agent [1]: no significant difference | number of active electrodes relative to the mock-treated sample (in words) [2]: no observable decrease | percentage of cell death vs doxorubicin in the absence of a protective agent (A549 cells (lung cancer)): no significant difference | Toxicity ([8]; 100 μM): − | cytotoxicity / toxic effects to cardiomyocytes (in words) ([8]; listed as Kaempferol): without some level of cytotoxicity at 100 μM | cytotoxicity / toxic effects to cardiomyocytes (in words) ([8]; listed as kaempferol): did not show toxic effects below 100 μM | cardioprotection (in words) [9]: moderate level of cardioprotection

number of total cells, as compared to mock-treated control [12]: no significant difference | IC50 (TOPOIIβ): 2.07 µM
Compound: O=c1c(O)c(-c2cc(O)c(O)c(O)c2)oc2cc(O)cc(O)c12 [Compound 1, 3,5,7,3′,4′,5′-hexahydroxyflavone]
TMRM signal (protection against doxorubicin-induced mitochondrial toxicity) [10]: greater TMRM signal | correction of DOX-induced contractile dysfunction (beating, duration, peak height) ([11]; DOX 0.5 μM plus MYR 100 μM, compared to DEX 100 μM): significantly corrected | topoisomerase IIβ protein levels [3]: no effect | rescue of bortezomib-induced cardiotoxicity (cardiomyocytes): rescued bortezomib-induced cardiotoxicity | TOPOIIα mRNA expression (TOPOIIα mRNA expression; DOX plus myricetin): further repressed | correction of cardiac dysfunction [13]: more than 80% | TOPOIIβ mRNA expression (TOPOIIβ mRNA expression; DOX plus myricetin): restored to a level close to normal | TOPOIIβ mRNA expression (TOPOIIβ mRNA expression; [16]): did not have any effect | protection against DOX-induced DNA double strand break (γH2AX-positive cells) [14]: significant protection | QT prolongation (in words) (patient): no signs of QT prolongation | cardiac dysfunction in the patient (patient; protective agent 100 mg co-formulated with, or 24 hours before, doxorubicin 10 mg): no indication of cardiac dysfunction

Compound: COc1cccc2c1C(=O)c1c(O)c3c(c(O)c1C2=O)C[C@@](O)(C(=O)CO)C[C@@H]3O[C@H]1C[C@H](N)[C@@H](O)[C@H](C)O1 [epirubicin]
CC50 at 72 h (in vitro): 0.49 µM

Compound: C[C@@H]1O[C@@H](Oc2c(-c3cc(O)c(O)c(O)c3)oc3cc(O)cc(O)c3c2=O)[C@H](O)[C@H](O)[C@H]1O [myricitrin]
QT prolongation (in words) (patient): no signs of QT prolongation

Compound: CC(=O)[C@]1(O)Cc2c(O)c3c(c(O)c2[C@@H](O[C@H]2C[C@H](N)[C@H](O)[C@H](C)O2)C1)C(=O)c1ccccc1C3=O [Idarubicin, idarubicin]
CC50 at 72 h (in vitro): 0.59 µM

Compound: COc1cccc2c1C(=O)c1c(O)c3c(c(O)c1C2=O)C[C@@](O)(C(=O)CO)C[C@@H]3O[C@H]1C[C@H](N)[C@H](O)[C@H](C)O1 [doxorubicin, reference compound]
cardiomyocyte contraction ([11]; DOX 0.5 μM): induced dysfunction in cardiomyocyte contraction | TOPOIIα mRNA expression (TOPOIIα mRNA expression; DOX alone, over time): slowly repressed | decrease of ejection fraction (EF) (C57BL/6 mice): 19% | decrease of fractional shortening (FS) (C57BL/6 mice): 15% | mitochondrial toxicity / protection (TMRM-positive cells) [4]: increase in mitochondrial toxicity | TOPOIIβ mRNA expression (TOPOIIβ mRNA expression; [16]): significantly repressed | decrease in the number of active electrodes ([15]; 24 hours): ~50% | decrease in the number of active electrodes, relative to time zero ([15]; 30 hours): ~95% | CC50 at 72 h (in vitro): 0.41 µM

Compound: Nc1ccc(O)c(C(=O)O)c1 [mesalamine]
percentage of cell death vs doxorubicin in the absence of a protective agent [1]: no significant difference | number of active electrodes relative to the mock-treated sample (in words) [2]: no observable decrease | percentage of cell death vs doxorubicin in the absence of a protective agent (A549 cells (lung cancer)): no significant difference
